Assay results published in patent publication US10201559B2, “Compositions of selenoorganic compounds and methods of use thereof” (Alltech, Inc., priority 2014, dated 2019).

Experiments:
[1] = tested on: pTau S396; assay: Western blot, pTau S396 in IMR-32 cells; assay type: cell-based, human; conditions: 150 ppb, 24 hr
Protocol: (§1) IMR-32 and AML12 cells were seeded on 6-well plates, and then treated with vehicle and various compounds for 6 and 24 hr, as described above. After treatments, cells were rinsed with ice-cold PBS, and lysed in the ice-cold RIPA buffer containing complete proteinase and phosphotase inhibitors (Themo-Fisher Scientific, Waltham, Mass.) on ice for 30 min. Cell lysates were collected using a cell scraper and transfer pipette, and then centrifuged at 12000 g for 30 min at 4° C. to remove the DNA pellet and obtain the protein extract. Protein levels in the supernatant of these cell lysates were determined using the Pierce Micro-BCA protein assay kit (Themo Scientific-Piece Biotechnology, Rockford, Ill.) according to the manufacturer's protocol.
(§2) For Western blot analysis, five micrograms of total proteins from vehicle- and compound(s)-treated cells were subjected to SDS-PAGE gel separation, and then transferred to PVDF membranes, as described previously (Reddy, Liu et al. 2008 Science). […] All primary antibodies except G6PC (Santa Cruz), Actb (Li-COR, Lincoln, Nebr.), Elf2bε and pElf2bε (Abcam, Cambridge, Mass.) were purchased from Cell Signaling Inc. Positive signals on the membrane blots were detected using the Amersham's enhanced chemiluminescence Western Blotting Prime Detection reagents (GE healthcare Lifescience, Pittsburgh, Pa.). […]

[2] = tested on: PSEN; assay: Western blot, PSEN in IMR-32 cells; assay type: cell-based, human; conditions: 150 ppb, 24 hr
Protocol: as §1, §2

[3] = tested on: Gsk3b; assay: Western blot, Gsk3b in IMR-32 cells; assay type: cell-based, human; conditions: 150 ppb, 24 hr, compared to control cells
Protocol: as §1, §2

[4] = tested on: PEN2; assay: Western blot, PEN2 in IMR-32 cells; assay type: cell-based, human; conditions: 150 ppb, 24 hr
Protocol: as §1, §2

[5] = tested on: beta-secretase BACE; assay: Western blot, BACE in IMR-32 cells; assay type: cell-based, human; conditions: 150 ppb, 24 hr
Protocol: as §1, §2

[6] = tested on: C2C12 cells; assay: Cell viability assay, C2C12; assay type: cell-based, mouse; conditions: 24 hr and 48 hr, same doses
Protocol: Cell viability in cultured cells was determined using Promega's CellTiter96® AQueous One Solution Cell Proliferation Assay kits, according to the Manufacturer's protocol. In brief, equal number of C2C12 (1×10^4 cells/well), AML-12 (1×10^4 cells/well) and IMR-32 (2×10^4 cells/well) were seeded on 96-well clear plates (VWR) and treated with vehicle or compounds for 24, […] and/or 72 hr. Then, cultured cells were incubated with AQueous One solution (100 ul/per well) at 37° C. for 1 hr, and the absorbance of OD490 nm in each sample was determined by the Bio-Tek microplate reader. Cell viability in culture cells were determined by the subtraction of OD490 nm in cultured cells with the OD490 nm in plain culture media (without seeding of cells). Eight samples per each treatment were examined for the above analysis. Data are presented as Mean±sem of eight samples.

Row | SMILES | phosphorylation of Tau at S396 [1] | PSEN protein level [2] | Gsk3b protein levels [3] | PEN2 protein [4] | beta-secretase BACE protein [5] | cell viability [6]
1 | C[Se]CC(NC(=O)CCC(N)C(=O)O)C(=O)O (centres unmarked) [compound E, gamma-glutamyl-methylseleno-cysteine] | significantly down-regulated |  |  |  |  | 
2 | C[Se]C[C@H]1O[C@@H](n2cnc3c(N)ncnc32)C(O)C1O (stereo in doubt) [compound C, 5′-Methylselenoadenosine] |  | significant reduction | statistically significant decrease of Gsk3b protein levels | but not PEN2 and beta-secretase BACE proteins were attenuated | but not PEN2 and beta-secretase BACE proteins were attenuated | did not affect cell viability
3 | Nc1ncnc2c1ncn2[C@@H]1O[C@H](C[Se]CC[C@@H](N)C(=O)O)C(O)C1O (some centres unmarked) [compound D, 5′-Selenoadenosyl homocysteine] | had no effect on Tau phosphorylation at all tested serine/threonine residues |  |  |  |  | did not affect cell viability
